Experimental data published in ChEMBL document CHEMBL4483862, “Open-source discovery of chemical leads for next-generation chemoprotective antimalarials” (2018).

Test system: Plasmodium berghei
Test: Luciferase/luciferin-expressing antifolate-resistant parasites were used to infect a culture of HepG2 cells that were pre-incubated with compounds. Infected hepatocytes emit light due to the luciferase reaction. Assay results are presented as the percent inhibition of light emission compared to control. […]
Assay type: functional
Details: sporozoite; for IC50: read-out: LUCIFERASE INFECTION ASSAY - IC50; for IC90: read-out: LUCIFERASE INFECTION ASSAY - IC90

Compound | IC50 [µM] | IC90 [µM]
Cc1ccc(-c2csc(NC(=O)CSc3nc4ccccc4c(=O)n3CCCN(C)C)n2)cc1 | > 10 | > 10
COc1ccc(OCc2nnc(SCC(=O)NCC3CCCO3)n2N)cc1 (configuration not stated) | > 10 | > 10
CCCn1c(O)nnc1SCC(=O)NC(C)C12CC3CC(CC(C3)C1)C2 (configuration not stated) | > 10 | > 10
NS(=O)(=O)c1ccc(CCNC(=O)c2ccc3nccnc3c2)cc1 | > 10 | > 10
COc1ccc(NC(=O)c2ccc(NC(=O)c3nc4nccc(C)n4n3)cc2)cc1 | > 10 | > 10
Cc1cccc(C(=O)NCCC(=O)NCc2ccccc2F)c1 | > 10 | > 10
CC(C)(C)NC(=O)NC(=O)COC(=O)CNS(=O)(=O)c1ccc(Br)cc1Cl | > 10 | > 10
CCOc1ccc(NC(=O)c2ccc(NC(=O)CSc3nncs3)cc2)cc1 | > 10 | > 10
CCn1c(C)nc2cc(C(=O)NNS(=O)(=O)c3cccc(Cl)c3Cl)ccc21.O=S(=O)(O)c1cccc(Cl)c1Cl | > 10 | > 10
COc1cc(/C=N/NC(=O)c2cc3c(s2)CCC(C)C3)ccc1OC(=O)c1ccco1 (configuration not stated) | > 10 | > 10
Cc1ccc(-c2nc(SCc3nc(=O)c4ccc(C(=O)O)cc4[nH]3)[nH]c2-c2ccc(C)cc2)cc1 | > 10 | > 10
Cc1cccc(C)c1N(C(=O)CCNC(=O)c1ccccc1Cl)c1nc2ccccc2s1 | > 10 | > 10
Cc1noc(C)c1COc1ccccc1C(=O)N1CCN(S(=O)(=O)c2cccc(C(F)(F)F)c2)CC1 | > 10 | > 10
CC(C)(C)c1ccc(-c2nnc(SCC(=O)N(Cc3ccccc3)c3nc(-c4ccc(Cl)cc4)cs3)n2-c2ccc(Br)cc2)cc1 | > 10 | > 10
CC(=O)c1cc2c(cc1NC(=O)c1cccc(S(=O)(=O)N3c4ccccc4CC3C)c1)OCO2 (configuration not stated) | > 10 | > 10
Cc1nc(N2CCCCC2)sc1C(=O)c1ccc(SCc2cc(Cl)cc3c2OCOC3)c([N+](=O)[O-])c1 | > 10 | > 10
Cc1cc(SCC(=O)NNC(=O)c2ccc(NS(=O)(=O)c3cccs3)cc2)nc2ccccc12 | > 10 | > 10
O=C(CN1c2cccc3cccc(c23)S1(=O)=O)N1CCN(C(=O)c2ccco2)CC1 | > 10 | > 10
CN(CC(=O)Nc1ccc(F)c(F)c1F)C(C(=O)Nc1ccc(Cl)c(C(F)(F)F)c1)c1ccccc1 (configuration not stated) | 6.74 | > 10
Cc1cccc(C(=O)Nc2ccccc2C(=O)OCC(=O)c2c[nH]c3ccccc23)c1 | > 10 | > 10
CSc1ccc(/C=N/OCC(=O)NCCc2ccc(Cl)cc2Cl)cc1 | > 10 | > 10
CCOc1ccc(C(C)=O)cc1COC(=O)c1cc(-c2ccccc2)nc2c1c(C)nn2-c1ccccc1 | > 10 | > 10
CC1CCCC(C)N1CCC(=O)NNC(=O)c1cc(-c2ccc(Cl)cc2)nc2ccccc12 (configuration not stated) | 7.66 | > 10
Cc1cccc2sc(N(Cc3ccccc3)C(=O)CSC(c3ccccc3)c3ccccc3)nc12 | > 10 | > 10
O=C(Nc1sc2c(c1-c1nc3ccccc3[nH]1)CCCC2)c1nc(-c2ccccc2)n(-c2ccccc2)n1 | 9.63 | > 10
O=c1c2ccccc2nc(Sc2ccc([N+](=O)[O-])c(C(F)(F)F)c2)n1-c1ccc(OC(F)F)cc1 | > 10 | > 10

Compound | IC50 [µM] | IC90 [µM]
O=C(NCC12CC3CC(CC(C3)C1)C2)c1ccc2ccccc2c1 | > 10 | > 10
OC12CC3CC(C1)CC(c1cc(-c4ccccc4Cl)c4cc(Cl)ccc4n1)(C3)C2 | > 10 | > 10
Cc1ccc(-c2cc(C(=O)NNC(=O)CC34CC5CC(CC(C5)C3)C4)c3ccccc3n2)cc1 | > 10 | > 10
c1ccc2c(CSCCC34CC5CC(CC(C5)C3)C4)cccc2c1 | > 10 | > 10
C=CCn1c(-c2c(C)oc3ccccc23)cs/c1=N\S(=O)(=O)c1cccs1 | > 10 | > 10
COC(=O)c1cc(Br)ccc1NC(=O)CCNC(=O)c1cccc(C)c1 | > 10 | > 10
CCOC(=O)CCCNC(=O)COC(=O)c1cc(-c2ccco2)nc2ccccc12 | > 10 | > 10
O=C(CCc1nc(=O)c2ccccc2[nH]1)OC(C(=O)c1c[nH]c2ccccc12)c1ccccc1 (configuration not stated) | > 10 | > 10
CCc1c(C)sc2nc(SCC3COc4ccccc4O3)n(-c3ccc(C)c(C)c3)c(=O)c12 (configuration not stated) | > 10 | > 10
O=C(Nc1nc(-c2ccc(F)cc2)cs1)c1cccc(S(=O)(=O)N2CCc3ccccc32)c1 | > 10 | > 10
Cc1ccc(Cn2nc(C)c(/C=N/NC(=O)c3ccccc3NS(=O)(=O)c3cccs3)c2C)cc1 | > 10 | > 10
FC(F)(F)c1cnc(Sc2nc(CN3CCOCC3)nc3scc(-c4ccccc4)c23)c(Cl)c1 | > 10 | > 10
CCOC(=O)c1sc(N)c(C#N)c1COC(=O)C1CCN(S(=O)(=O)c2ccc(C)c(C)c2)CC1 | > 10 | > 10
CC(OC(=O)C1CCN(C(=O)c2ccc(Cl)cc2)CC1)C(=O)Nc1ccc([N+](=O)[O-])cc1C(F)(F)F (configuration not stated) | > 10 | > 10
COC(=O)c1ccc(-n2c(C)cc(C(=O)COC(=O)c3cc4c(=O)n5ccccc5nc4s3)c2C)cc1 | 9.43 | > 10
Cc1ccc(NC(=O)COc2ccc3c(=O)c(-c4ccccc4)c(C)oc3c2)cc1[N+](=O)[O-] | > 10 | > 10
CCn1c2ccccc2c2cc(NC(=O)C(C)OC(=O)c3ccc([N+](=O)[O-])o3)ccc21 (configuration not stated) | > 10 | > 10
Clc1nc2ccccc2cc1/C=N/Cc1ccc2c(c1)OCO2 | > 10 | > 10
CCOc1cc(N2CCOCC2)c(OCC)cc1NC(=O)c1n[nH]c(=O)c2ccccc12 | > 10 | > 10
O=C(CCC(=O)c1ccc2c(c1)OCCO2)OCn1nnc2ccccc2c1=O | > 10 | > 10
O=C(NCC1COc2ccccc2O1)c1cccc(S(=O)(=O)N2CCC(Cc3ccccc3)CC2)c1 (configuration not stated) | > 10 | > 10
COc1ccc(N(CCC23CC4CC(CC(C4)C2)C3)S(=O)(=O)c2ccccc2)cc1 | > 10 | > 10
O=C(CN1C(=O)NC2(CCCCC2)C1=O)NC1CCS(=O)(=O)C1 (configuration not stated) | > 10 | > 10
COc1ccc([N+](=O)[O-])cc1NC(=O)COC(=O)CSCc1c(C)noc1C | > 10 | > 10
COc1ccc(Cl)cc1NS(=O)(=O)c1cccc(C(=O)OC(C)C(=O)c2cc(C)n(-c3ccccc3)c2C)c1 (configuration not stated) | > 10 | > 10
COc1ccc(CNC(=O)/C=C/c2csc(N(C(C)=O)c3cccc(C(F)(F)F)c3)n2)cc1 | > 10 | > 10

Compound | IC50 [µM] | IC90 [µM]
COc1ccc(OCCCC(=O)N(Cc2ccccc2)c2nc3c(C)cccc3s2)cc1 | > 10 | > 10
CN(C)c1ccc(/C=C2\CCn3c2nc2scc(-c4ccccc4)c2c3=O)cc1[N+](=O)[O-] | > 10 | > 10
O=C(NNC(=O)c1cc(F)c(F)c(F)c1F)c1ccc(COc2cccc3cccnc23)cc1 | > 10 | > 10
CC1CC(C)CN(C(=O)c2ccccc2C(=O)OCC(=O)NCc2cccs2)C1 (configuration not stated) | > 10 | > 10
CCOc1ccc(C(C)=O)cc1CSc1nnc(-c2ccc(F)cc2)c2ccccc12 | > 10 | > 10
CCOC(=O)c1c(C)oc(NC(=O)CSc2nnc(-c3ccccc3)n2-c2ccc(C)c(C)c2)c1C#N | > 10 | > 10
CCOC(=O)c1c(-c2ccccc2)csc1NC(=O)C(C)OC(=O)c1ccccc1NS(=O)(=O)c1cccc(C(F)(F)F)c1 (configuration not stated) | > 10 | > 10
CC(OC(=O)c1ccc(=O)n(Cc2ccccc2)n1)C(=O)N1CCCc2ccccc21 (configuration not stated) | > 10 | > 10
CC(C)=CC(=O)Nc1scc(-c2ccccc2)c1C(=O)OCC(=O)N(CCC#N)c1cc(C)cc(C)c1 | > 10 | > 10
Cc1cc(C)cc(OCC(O)CNC(C)CCC(C)C)c1 (configuration not stated) | > 10 | > 10
CC(OC(=O)c1ccccc1NS(=O)(=O)c1ccc2c(c1)OCCO2)C(=O)Nc1ccc([N+](=O)[O-])cc1C(F)(F)F (configuration not stated) | > 10 | > 10
Cc1ccc(C(=O)NC(c2ccccc2)c2ccccc2)s1 | > 10 | > 10
O=c1c2ccccc2nc(SCc2coc(-c3cccs3)n2)n1-c1ccc(Cl)cc1 | > 10 | > 10
CN(C)S(=O)(=O)c1ccc2oc3nnc(SCc4csc(-c5ccccc5)n4)n3c2c1 | > 10 | > 10
Cc1ccccc1-n1c(Sc2ncccc2[N+](=O)[O-])nc2ccccc2c1=O | > 10 | > 10
COc1ccc(OCCCC(=O)N(c2nc3ccccc3s2)c2cc(C(F)(F)F)ccc2Cl)cc1 | > 10 | > 10
CCCn1c(=O)c2ccccc2n2c(SCc3nc(=O)c4ccc(C(=O)O)cc4[nH]3)nnc12 | > 10 | > 10
COC(=O)c1c(NC(=O)CN(C)Cc2ccc(OC(F)F)c(OC)c2)sc(C)c1C | > 10 | > 10
c1ccc(-c2csc3nc(-c4cccnc4)nc(NCC45CC6CC(CC(C6)C4)C5)c23)cc1 | > 10 | > 10
COc1ccc2c(C)cc(SCc3nc(=O)c4c(-c5ccc(Cl)cc5)csc4[nH]3)nc2c1 | > 10 | > 10
CCOC(=O)c1c(-c2ccc(C)o2)csc1NC(=O)CN(C)CC(=O)Nc1ccc(Cl)c(C(F)(F)F)c1 | > 10 | > 10
CCc1cc2c(=O)n(NC(=S)Nc3ccc(OC)cc3)cnc2s1 | > 10 | > 10
CC(C)(C)c1ccc(/C=N/NC(=O)CNc2ccccc2F)cc1 | > 10 | > 10
Cn1c2ccccc2c2ccc(CC(=O)N/N=C/c3ccccc3)cc21 | > 10 | > 10
